Reference: article PMC3026848 (Bioorganic & medicinal chemistry, 2010)
Read-outs that look alike come from different tables or passages of the source.

Experiments:
melanoma = melanoma chemotherapy; cited from earlier work
[1] = system: NCI-H226 (human lung cancer); experiment: Screening against NCI-H226; type: cell-based; details: unpublished data from this laboratory
UACC-62 cells = experiment: Cell cycle distribution by flow cytometry; type: cell-based, human; details: UACC-62, 6 days, 0.01 µM to 1 µM, PI staining
A431(human skin cancer) = experiment: Screening against A431; type: cell-based; details: unpublished data from this laboratory
[2] = system: PC-3 (human prostate cancer); experiment: Screening against PC-3; type: cell-based; details: unpublished data from this laboratory
[3] = system: UO-31 (human renal cancer); experiment: Screening against UO-31; type: cell-based; details: unpublished data from this laboratory
[4] = cited from earlier work
[5] = high dosages; cited from earlier work

CN(C)/N=N/c1[nH]cnc1C(N)=O [Dacarbazine, dacarbazine]
response rate (melanoma): 10% to 20

CC(=O)N[C@@H](CSC(=O)Nc1ccc(Cl)cc1)C(=O)O [NACC, N-Acetyl-S-(p-chlorophenylcarbamoyl)cysteine]
activity against NCI-H226 [1]: Poor activities | effect on cell cycle distribution (UACC-62 cells): no change in cell cycle distribution was observed | activity against A431 (A431(human skin cancer)): Poor activities | activity against PC-3 [2]: Poor activities | activity against UO-31 [3]: Poor activities | protein binding ([4]; reported earlier): 84%

O=C(Nc1ccc(Cl)cc1)NS(=O)(=O)c1ccc2c(c1)CCC2 [Sulofenur, reference compound]
adverse effects in clinical trials [5]: hemolytic anemia and methemoglobinemia were observed | protein binding [4]: greater than 99%
